Assays:
Venturia inaequalis = experiment: In vivo preventive Venturia test (apples), Example J; conditions: 240 h, read-out: efficacy
Method: After the spray coating has dried on, the plants are inoculated with an aqueous conidia suspension of the causal agent of apple scab (Venturia inaequalis) and then remain for 1 day in an incubation cabinet at approximately 20° C. and a relative atmospheric humidity of 100%.
The plants are then placed in a greenhouse at approximately 21° C. and a relative atmospheric humidity of approximately 90%.
The test is evaluated 10 days after the inoculation.

Septoria tritici = experiment: In vivo preventive test on Septoria tritici (leaf spot on wheat), Examples E, Q3 and R5; conditions: Zymoseptoria tritici, 576 h, 500 ppm of active ingredient; wheat, preventive spray, evaluated 24 days after inoculation; read-out: efficacy
Phakopsora pachyrhizi = experiment: In vivo preventive Phakopsora test (soybeans), Example I; conditions: 168 h, 100 ppm of active ingredient, preventive spray, evaluated 7 days after inoculation, read-out: efficacy
Uromyces appendiculatus = experiment: In vivo preventive test on Uromyces appendiculatus (bean rust), Examples G and R7; conditions: 264 h, 500 ppm of active ingredient, bean, preventive spray, evaluated 11 days after inoculation, read-out: efficacy
[1] = test system: Blumeria graminis fsp. hordei; experiment: In vivo preventive Blumeria test (barley), Example K; conditions: 168 h, 500 ppm of active ingredient, preventive spray, evaluated 7 days after inoculation, read-out: efficacy
Text: After the spray coating has been dried, the plants are dusted with spores of Blumeria graminis fsp. hordei.

Leptosphaeria nodorum = experiment: In vivo preventive Leptosphaeria nodorum test (wheat), Example N; conditions: Parastagonospora nodorum, 192 h, 500 ppm of active ingredient, preventive spray, evaluated 8 days after inoculation, read-out: efficacy
Text: After the spray coating has been dried, the plants are sprayed with a spore suspension of Leptosphaeria nodorum.

Sphaerotheca fuliginea = experiment: In vivo preventive test on Sphaerotheca fuliginea (powdery mildew on cucurbits), Examples F and R6; conditions: Podosphaera fuliginea, 360 h; 500 ppm of active ingredient; gherkin, preventive spray, evaluated 15 days after inoculation; read-out: efficacy
Pyricularia oryzae = experiment: whole plant or invertebrate; assay type: in vivo; conditions: 192 h, read-out: efficacy
Fusarium graminearum = experiment: whole plant or invertebrate; assay type: in vivo; conditions: in Hordeum vulgare, 120 h, read-out: efficacy
Botrytis cinerea = experiment: In vivo preventive test on Botrytis cinerea (grey mould) on gherkin, Examples B, Q1 and R2; conditions: Botrytis cinerea, 500 ppm of active ingredient, preventive spray, evaluated 4 to 5 days after inoculation, read-out: efficacy
Pyrenophora teres = experiment: In vivo preventive test on Pyrenophora teres (net blotch on barley), Examples D, Q2 and R4; conditions: Pyrenophora teres, 336 h, 500 ppm of active ingredient, preventive spray, evaluated 14 days after inoculation, read-out: efficacy
Alternaria solani = experiment: In vivo preventive Alternaria test (tomatoes), Example H; conditions: 72 h, 100 ppm of active ingredient, preventive spray, evaluated 3 days after inoculation, read-out: efficacy
[2] = Measurement of LogP values by HPLC on reversed phase columns (EEC directive 79/831 Annex V.A8); assay type: physicochemical; conditions: method [a]: LC-UV, acidic range, 0.1% formic acid in water and acetonitrile as eluent; Table 1
Method: Measurement of Log P values was performed as outlined above.

Puccinia recondita = experiment: In vivo preventive test on Puccinia recondita (brown rust on wheat), Examples C and R3; conditions: Puccinia recondita, 264 h; 500 ppm of active ingredient; wheat, preventive spray, evaluated 11 days after inoculation; read-out: efficacy
[3] = test system: Fusarium nivale (var. majus); experiment: In vivo preventive Fusarium nivale (var. majus) test (wheat), Example O; conditions: Microdochium nivale, 120 h, 500 ppm of active ingredient, preventive spray, evaluated 5 days after inoculation, read-out: efficacy
Text: After the spray coating has been dried, the plants are slightly injured by using a sandblast and afterwards they are sprayed with a conidia suspension of Fusarium nivale (var. majus).

| SMILES | pest or weed control at 100 ppm (Venturia inaequalis) [%] | pest or weed control at 500 ppm (Septoria tritici) [%] | pest or weed control at 100 ppm (Phakopsora pachyrhizi) [%] | pest or weed control at 500 ppm (Uromyces appendiculatus) [%] | pest or weed control at 500 ppm [1] [%] | pest or weed control at 500 ppm (Leptosphaeria nodorum) [%] | pest or weed control at 500 ppm (Sphaerotheca fuliginea) [%] | pest or weed control at 500 ppm (Pyricularia oryzae) [%] | pest or weed control at 500 ppm (Fusarium graminearum) [%] | pest or weed control at 500 ppm (Botrytis cinerea) [%] | pest or weed control at 500 ppm (Pyrenophora teres) [%] | pest or weed control at 100 ppm (Alternaria solani) [%] | chromatographic logP [2] | pest or weed control at 500 ppm (Puccinia recondita) [%] | pest or weed control at 500 ppm [3] [%] |
| --- | --- | --- | --- | --- | --- | --- | --- | --- | --- | --- | --- | --- | --- | --- | --- |
| OC(Cc1ccc(Br)cc1F)(Cn1cncc1Cl)C1(Cl)CC1 (stereo not drawn) [Example I-44] | 90 to 100 | 90 to 100 | 90 to 100 | 90 to 100 | 90 to 100 | 80 to 89 | 90 to 100 | 70 to 79 | 70 to 79 | 90 to 100 | 90 to 100 | 90 to 100 | 2.64 | 80 to 89 |  |
| N#Cc1cncn1CC(O)(Cc1cccc(Cl)c1Cl)C1(Cl)CC1 (stereo not drawn) [Example I-49] |  | 90 to 100 |  | 90 to 100 | 90 to 100 | 80 to 89 | 90 to 100 | 80 to 89 | 70 to 79 |  | 90 to 100 |  | 3.25 | 90 to 100 | 80 to 89 |
| OC(Cc1ccncc1Cl)(Cn1cncc1Cl)C1(Cl)CC1 (stereo not drawn) [Example I-72] |  | 90 to 100 |  | 90 to 100 | 90 to 100 | 90 to 100 | 90 to 100 | 90 to 100 | 70 to 79 | 70 to 79 | 80 to 89 |  | 1.52 | 80 to 89 | 90 to 100 |
| N#Cc1cncn1CC(O)(Cc1ccc(F)cc1F)C1(Cl)CC1 (stereo not drawn) [Example I-125] | 90 to 100 | 90 to 100 | 90 to 100 | 90 to 100 | 90 to 100 | 80 to 89 | 90 to 100 | 80 to 89 | 90 to 100 | 80 to 89 |  | 90 to 100 | 2.78 | 90 to 100 | 90 to 100 |
| N#Cc1cncn1CC(O)(Cc1ccnc(Cl)c1F)C1(Cl)CC1 (stereo not drawn) [Example I-152] |  | 90 to 100 |  | 90 to 100 | 90 to 100 | 70 to 79 | 90 to 100 |  | 70 to 79 |  | 70 to 79 |  | 2.25 | 90 to 100 | 90 to 100 |
| N#Cc1cncn1CC(O)(Cc1ccc(F)cc1Cl)C1(Cl)CC1 (stereo not drawn) [Example I-154] |  | 90 to 100 |  | 90 to 100 | 90 to 100 | 90 to 100 | 90 to 100 | 70 to 79 | 90 to 100 | 80 to 89 |  |  | 3 | 90 to 100 | 90 to 100 |

From patent US10231453B2, “5-substituted imidazole derivatives” (BAYER CROPSCIENCE AKTIENGESELLSCHAFT, priority 2015, dated 2019)
